pIC50: −log10 of the molar value.
Molecular target: T1, human HSL (Homo sapiens, UniProt Q05469)
T1 construct: overlapping PCR to generate a full length human HSL ORF with a 3′-His6 tag; His6 (C); made in house; host or cells: High 5 insect cells (baculovirus, pFast-BAC)
T1 sequence (Q05469 1-1076): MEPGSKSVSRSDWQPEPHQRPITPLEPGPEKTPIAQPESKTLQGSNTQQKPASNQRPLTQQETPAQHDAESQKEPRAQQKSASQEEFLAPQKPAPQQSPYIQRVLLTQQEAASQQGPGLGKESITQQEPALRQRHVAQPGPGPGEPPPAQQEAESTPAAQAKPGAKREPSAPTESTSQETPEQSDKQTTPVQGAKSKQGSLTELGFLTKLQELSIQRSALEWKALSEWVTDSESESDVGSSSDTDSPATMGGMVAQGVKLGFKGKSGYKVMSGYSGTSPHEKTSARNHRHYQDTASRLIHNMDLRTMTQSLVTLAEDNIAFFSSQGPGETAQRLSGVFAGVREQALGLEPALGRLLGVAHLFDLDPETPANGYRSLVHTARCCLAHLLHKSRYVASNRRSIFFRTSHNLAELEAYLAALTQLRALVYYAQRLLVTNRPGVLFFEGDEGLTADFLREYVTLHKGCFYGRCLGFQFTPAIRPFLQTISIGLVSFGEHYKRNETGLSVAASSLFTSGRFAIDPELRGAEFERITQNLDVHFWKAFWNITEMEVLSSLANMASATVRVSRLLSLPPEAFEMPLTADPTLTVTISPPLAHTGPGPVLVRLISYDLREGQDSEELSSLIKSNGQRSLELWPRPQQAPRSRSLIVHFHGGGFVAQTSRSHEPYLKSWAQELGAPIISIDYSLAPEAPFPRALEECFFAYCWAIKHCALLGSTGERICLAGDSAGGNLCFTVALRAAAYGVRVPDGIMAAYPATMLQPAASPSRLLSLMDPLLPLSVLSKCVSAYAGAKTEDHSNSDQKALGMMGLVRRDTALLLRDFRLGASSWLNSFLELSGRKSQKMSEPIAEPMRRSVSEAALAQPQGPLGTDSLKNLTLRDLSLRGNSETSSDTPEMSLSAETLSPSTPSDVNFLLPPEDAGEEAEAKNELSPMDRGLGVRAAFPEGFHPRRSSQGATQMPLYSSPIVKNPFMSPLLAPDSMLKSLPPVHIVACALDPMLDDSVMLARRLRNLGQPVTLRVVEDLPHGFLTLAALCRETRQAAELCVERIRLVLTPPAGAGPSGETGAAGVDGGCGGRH
Test: Human Hormone-Sensitive Lipase (HSL) Enzyme Inhibition Assay
Assay type: biochemical
Conditions: colorimetric assay, 2,3-dimercapto-1-propanol tributyrate (DMPT) substrate, 37° C. for 20 minutes, absorbance at 405 nm; read-out: HSL hum IC50
Summary of the method: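 Colorimetric thioester hydrolysis: compounds in DMSO series mixed with DMPT (1.5 mM) in MOPS pH 7.2 with BSA, then baculovirus-expressed His6-tagged full-length human HSL added, 37° C, 20 min. DTNB plus detergents added, 15 min room temperature, absorbance at 405 nm.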

pIC50	Structure (SMILES)
6.66	CC(C)(C)CC(=O)N1CCC2(CC1)CCN(c1ccc(C(O)C(F)(F)F)cc1)C2=O (stereo not shown) [Example 165, 8-(3,3-Dimethyl-butyryl)-2-[4-(2,2,2-trifluoro-1-hydroxy-ethyl)-phenyl]-2,8-diaza-spiro[4.5]decan-1-one]
7.70	O=C1N(c2ccc(C(O)C(F)(F)F)cc2)CCC12CCN(S(=O)(=O)c1ccccc1C(F)(F)F)CC2 (stereo not shown) [Example 166, 2-(4-(2,2,2-trifluoro-1-hydroxyethyl)phenyl)-8-(2-(trifluoromethyl)phenylsulfonyl)-2,8-diazaspiro[4.5]decan-1-one]
7.15	CC(C)CS(=O)(=O)N1CCC2(CCN(c3ccc(C(O)C(F)(F)F)cc3)C2=O)CC1 (stereo not shown) [Example 167, 8-(isobutylsulfonyl)-2-(4-(2,2,2-trifluoro-1-hydroxyethyl)phenyl)-2,8-diazaspiro[4.5]decan-1-one]
6.89	CC(C)CS(=O)(=O)N1CCC2(CCN(c3ccc(C(C)(O)C(F)(F)F)cc3)C2=O)CC1 (stereo not shown) [Example 168, 8-(isobutylsulfonyl)-2-(4-(1,1,1-trifluoro-2-hydroxypropan-2-yl)phenyl)-2,8-diazaspiro[4.5]decan-1-one]
6.49	O=C1N(c2ccc(C(O)C(F)(F)F)cc2)CCC12CCN(S(=O)(=O)C1CC1)CC2 (stereo not shown) [Example 170, 8-(Cyclopropylsulfonyl)-2-(4-(2,2,2-trifluoro-1-hydroxyethyl)phenyl)-2,8-diazaspiro[4.5]decan-1-one]
6.26	CC(O)(c1ccc(N2CCC3(CCN(S(=O)(=O)C4CC4)CC3)C2=O)cc1)C(F)(F)F (stereo not shown) [Example 171, 8-(Cyclopropylsulfonyl)-2-(4-(1,1,1-trifluoro-2-hydroxypropan-2-yl)phenyl)-2,8-diazaspiro[4.5]decan-1-one]
6.11	CCS(=O)(=O)c1ccc(N2CCC3(CCN(S(=O)(=O)CC(C)(C)C)CC3)C2=O)cc1 [Example 172, 8-(2,2-Dimethyl-propane-1-sulfonyl)-2-(4-ethanesulfonyl-phenyl)-2,8-diaza-spiro[4.5]decan-1-one]
6.85	O=C1N(c2ccc(C(O)CF)cc2)CCC12CCN(S(=O)(=O)c1ccccc1C(F)(F)F)CC2 (stereo not shown) [Example 173, 2-(4-(2-fluoro-1-hydroxyethyl)phenyl)-8-(2-(trifluoromethyl)phenylsulfonyl)-2,8-diazaspiro[4.5]decan-1-one]
7.22	CC(C)(O)c1ccc(N2CCC3(CCN(S(=O)(=O)c4ccccc4C(F)(F)F)CC3)C2=O)cc1 [Example 174, 2-[4-(1-Hydroxy-1-methyl-ethyl)-phenyl]-8-(2-trifluoromethyl-benzenesulfonyl)-2,8-diaza-spiro[4.5]decan-1-one]
6.12	CC(C)(C)CC(=O)N1CCC2(CC1)CCN(c1ccc(C(O)C(C)(F)F)cc1)C2=O (stereo not shown) [Example 175, 2-(4-(2,2-difluoro-1-hydroxypropyl)phenyl)-8-(3,3-dimethylbutanoyl)-2,8-diazaspiro[4.5]decan-1-one]
6.35	CC(C)CS(=O)(=O)N1CCC2(CCN(c3ccc(C(O)C(F)F)cc3)C2=O)CC1 (stereo not shown) [Example 177, 2-(4-(2,2-difluoro-1-hydroxyethyl)phenyl)-8-(isobutylsulfonyl)-2,8-diazaspiro[4.5]decan-1-one]
6.19	CC(C)(C)CC(=O)N1CCC2(CC1)CCN(c1ccc(C(O)C(F)F)cc1)C2=O (stereo not shown) [Example 178, 2-(4-(2,2-difluoro-1-hydroxyethyl)phenyl)-8-(3,3-dimethylbutanoyl)-2,8-diazaspiro[4.5]decan-1-one]

The remaining lines, values behind:

Structure (SMILES)	pIC50
O=C1N(c2cc(C(F)(F)F)ccc2Cl)CCC12CCN(S(=O)(=O)c1ccccc1Cl)CC2 [Example 154, 8-(2-Chloro-benzenesulfonyl)-2-(2-chloro-5-trifluoromethyl-phenyl)-2,8-diaza-spiro[4.5]decan-1-one]	6.68
CC(O)(c1ccc(N2CCC3(CCN(S(=O)(=O)c4ccccc4Cl)CC3)C2=O)cc1)C(F)(F)F (stereo not shown) [Example 155, 8-(2-Chloro-benzenesulfonyl)-2-[4-(2,2,2-trifluoro-1-hydroxy-1-methyl-ethyl)-phenyl]-2,8-diaza-spiro[4.5]decan-1-one]	7.70
CCS(=O)(=O)c1ccc(N2CCC3(CCN(S(=O)(=O)c4ccccc4Cl)CC3)C2=O)cc1 [Example 156, 8-(2-Chloro-benzenesulfonyl)-2-(4-ethanesulfonyl-phenyl)-2,8-diaza-spiro[4.5]decan-1-one]	7.22
O=C1N(c2ccc(C(O)(C(F)(F)F)C(F)(F)F)cc2)CCC12CCN(S(=O)(=O)c1ccccc1Cl)CC2 [Example 157, 8-(2-Chloro-benzenesulfonyl)-2-[4-(2,2,2-trifluoro-1-hydroxy-1-trifluoromethyl-ethyl)-phenyl]-2,8-diaza-spiro[4.5]decan-1-one]	7.40
O=C1N(c2ccc(C(F)(F)F)cc2)CCCC12CCN(S(=O)(=O)c1ccccc1Cl)CC2 [Example 158, 9-(2-Chloro-benzenesulfonyl)-2-(4-trifluoromethyl-phenyl)-2,9-diaza-spiro[5.5]undecan-1-one]	6.92
CCOCc1ccc(N2CCCC3(CCN(S(=O)(=O)c4ccccc4Cl)CC3)C2=O)cc1 [Example 159, 9-(2-Chloro-benzenesulfonyl)-2-(4-ethoxymethyl-phenyl)-2,9-diaza-spiro[5.5]undecan-1-one]	6.52
CC(C)NC(=O)c1ccc(N2CCC3(CCN(S(=O)(=O)c4ccccc4Cl)CC3)C2=O)cc1 [Example 160, 4-[8-(2-Chloro-benzenesulfonyl)-1-oxo-2,8-diaza-spiro[4.5]dec-2-yl]-N-isopropyl-benzamide]	6.05
CC(C)N(C)C(=O)c1ccc(N2CCC3(CCN(S(=O)(=O)c4ccccc4Cl)CC3)C2=O)cc1 [Example 161, 4-[8-(2-Chloro-benzenesulfonyl)-1-oxo-2,8-diaza-spiro[4.5]dec-2-yl]-N-isopropyl-N-methyl-benzamide]	6.42
O=C1N(c2ccc(C(O)C(F)(F)F)cc2)CCC12CCN(S(=O)(=O)c1ccccc1OC(F)(F)F)CC2 (stereo not shown) [Example 163, 2-[4-(2,2,2-Trifluoro-1-hydroxy-ethyl)-phenyl]-8-(2-trifluoromethoxy-benzenesulfonyl)-2,8-diaza-spiro[4.5]decan-1-one]	7.70
Cc1noc(C)c1S(=O)(=O)N1CCC2(CCN(c3ccc(C(F)(F)F)cc3)C2=O)CC1 [Example 164, 8-(3,5-Dimethyl-isoxazole-4-sulfonyl)-2-(4-trifluoromethyl-phenyl)-2,8-diaza-spiro[4.5]decan-1-one]	6.55
CC(O)(c1ccc(N2CCC3(CCN(S(=O)(=O)c4ccccc4C(F)(F)F)CC3)C2=O)cc1)C(F)(F)F (stereo not shown) [Example 169, 2-(4-(1,1,1-trifluoro-2-hydroxypropan-2-yl)phenyl)-8-(2-(trifluoromethyl)phenylsulfonyl)-2,8-diazaspiro[4.5]decan-1-one]	7.52
O=C1N(c2ccc(C(F)(F)F)cc2)CCC12CCN(S(=O)(=O)c1ccccc1Cl)CC2 [Example 179, 8-(2-Chloro-benzenesulfonyl)-2-(4-trifluoromethyl-phenyl)-2,8-diaza-spiro[4.5]decan-1-one]	7.40
Cc1nn(C)c(C)c1S(=O)(=O)N1CCC2(CCN(c3ccc(OC(F)(F)F)cc3)C2=O)CC1 [Example 180, 2-(4-Trifluoromethoxy-phenyl)-8-(1,3,5-trimethyl-1H-pyrazole-4-sulfonyl)-2,8-diaza-spiro[4.5]decan-1-one]	7.22
Cn1cnc(S(=O)(=O)N2CCC3(CCN(c4ccc(OC(F)(F)F)cc4)C3=O)CC2)c1 [Example 181, 8-(1-Methyl-1H-imidazole-4-sulfonyl)-2-(4-trifluoromethoxy-phenyl)-2,8-diaza-spiro[4.5]decan-1-one]	6.59
O=C1N(c2ccc(OC(F)(F)F)cc2)CCC12CCN(S(=O)(=O)N1CCCC1)CC2 [Example 182, 8-(Pyrrolidine-1-sulfonyl)-2-(4-trifluoromethoxy-phenyl)-2,8-diaza-spiro[4.5]decan-1-one]	7.05
Cn1nccc1S(=O)(=O)N1CCC2(CCN(c3ccc(OC(F)(F)F)cc3)C2=O)CC1 [Example 183, 8-(2-Methyl-2H-pyrazole-3-sulfonyl)-2-(4-trifluoromethoxy-phenyl)-2,8-diaza-spiro[4.5]decan-1-one]	7.40
